Assay results reported in PubChem BioAssay AID2060612 (Molecular Pharmacology Branch, DTP, NCI, 2025).
Where “and” joins values, the source holds several entries; their conditions need not be identical. Equal values may be shown once. Blank lines part the entries; values can stand above or below the compound they belong to.

System: 565232-114-T-J1-PDC complex spheroid viability
Experiment: Anticancer human tumor 565232-114-T-J1-PDC patient-derived bladder carcinoma cell line growth inhibition [CLK]
Conditions: for viability, T/C: stronger effect = lower value
Summary of the method: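 Patient-derived tumor cells grown as complex spheroids with HUVEC endothelial cells and mesenchymal stem cells, treated with drug combinations. Concentrations descend in half-log steps from near clinical Cmax, or from 10 microM if Cmax unknown.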

[1] = curve of first compound, second compound 0.0316 µM
[2] = curve of first compound, second compound 0.1 µM
[3] = curve of first compound, second compound 0.316 µM
[4] = curve of first compound, second compound 1 µM
[5] = curve of first compound, second compound 3.16 µM
[6] = curve of first compound, second compound 10 µM
[7] = second compound 0.0316 µM, first compound 0.0316 µM
[8] = second compound 0.0316 µM, first compound 0.1 µM
[9] = second compound 0.0316 µM, first compound 0.316 µM
[10] = second compound 0.0316 µM, first compound 1 µM
[11] = second compound 0.0316 µM, first compound 3.16 µM
[12] = second compound 0.0316 µM, first compound 10 µM
[13] = second compound 0.1 µM, first compound 0.0316 µM
[14] = second compound 0.1 µM, first compound 0.1 µM
[15] = second compound 0.1 µM, first compound 0.316 µM
[16] = second compound 0.1 µM, first compound 1 µM
[17] = second compound 0.1 µM, first compound 3.16 µM
[18] = second compound 0.1 µM, first compound 10 µM
[19] = second compound 0.316 µM, first compound 0.0316 µM
[20] = second compound 0.316 µM, first compound 0.1 µM
[21] = second compound 0.316 µM, first compound 0.316 µM
[22] = second compound 0.316 µM, first compound 1 µM
[23] = second compound 0.316 µM, first compound 3.16 µM
[24] = second compound 0.316 µM, first compound 10 µM
[25] = second compound 1 µM, first compound 0.0316 µM
[26] = second compound 1 µM, first compound 0.1 µM
[27] = second compound 1 µM, first compound 0.316 µM
[28] = second compound 1 µM, first compound 1 µM
[29] = second compound 1 µM, first compound 3.16 µM
[30] = second compound 1 µM, first compound 10 µM
[31] = second compound 3.16 µM, first compound 0.0316 µM
[32] = second compound 3.16 µM, first compound 0.1 µM
[33] = second compound 3.16 µM, first compound 0.316 µM
[34] = second compound 3.16 µM, first compound 1 µM
[35] = second compound 3.16 µM, first compound 3.16 µM
[36] = second compound 3.16 µM, first compound 10 µM
[37] = second compound 10 µM, first compound 0.0316 µM
[38] = second compound 10 µM, first compound 0.1 µM
[39] = second compound 10 µM, first compound 0.316 µM
[40] = second compound 10 µM, first compound 1 µM
[41] = second compound 10 µM, first compound 3.16 µM
[42] = second compound 10 µM, first compound 10 µM
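Note: spheroids exposed to compounds for 7 days before readout.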
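Throughout, for viability, T/C: 100% = DMSO vehicle wells with luminescence normalized to vehicle control.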

IC50 [1]: 36 nM
IC50 [2]: < 31.6 nM
IC50 [3]: < 31.6 nM
IC50 [4]: < 31.6 nM
IC50 [5]: < 31.6 nM
IC50 [6]: < 31.6 nM
SMILES: Nc1ccn(C2OC(CO)C(O)C2(F)F)c(=O)n1 (stereo unspecified) + CNC(=O)c1ccc(Nc2nc(OC3CCCC3)c3c(-c4ccc5nc(C)oc5c4)c[nH]c3n2)c(OC)c1
viability, T/C [7]: 54.3%
viability, T/C [8]: 18.6%
viability, T/C [9]: 8.71%
viability, T/C [10]: 7.4%
viability, T/C [11]: 11.2%
viability, T/C [12]: 13.6%
viability, T/C [13]: 35.7%
viability, T/C [14]: 22%
viability, T/C [15]: 8.15%
viability, T/C [16]: 9.21%
viability, T/C [17]: 13.3%
viability, T/C [18]: 11.8%
viability, T/C [19]: 26.2%
viability, T/C [20]: 19.5%
viability, T/C [21]: 8.41%
viability, T/C [22]: 7.45%
viability, T/C [23]: 12.3%
viability, T/C [24]: 12.2%
viability, T/C [25]: 16.9%
viability, T/C [26]: 14.9%
viability, T/C [27]: 8.75%
viability, T/C [28]: 7.6%
viability, T/C [29]: 9.48%
viability, T/C [30]: 8.93%
viability, T/C [31]: 19.3%
viability, T/C [32]: 14.5%
viability, T/C [33]: 5.99%
viability, T/C [34]: 5.99%
viability, T/C [35]: 6.76%
viability, T/C [36]: 6.01%
viability, T/C [37]: 17.7%
viability, T/C [38]: 13.9%
viability, T/C [39]: 6.66%
viability, T/C [40]: 6.31%
viability, T/C [41]: 6.89%
viability, T/C [42]: 5.15%

IC50 (curve of compound): > 10000 nM
SMILES: C#Cc1c(F)ccc2cc(O)cc(-c3ncc4c(N5CC6CCC(C5)N6)nc(OCC56CCCN5CC(F)C6)nc4c3F)c12 (stereo unspecified)
viability, T/C (compound 0.0316 µM): 106% and 77.8%
viability, T/C (compound 0.1 µM): 92.2% and 83.3%
viability, T/C (compound 0.316 µM): 103% and 102%
viability, T/C (compound 1 µM): 93.2% and 110%
viability, T/C (compound 3.16 µM): 98.7% and 94.8%
viability, T/C (compound 10 µM): 93% and 95.2%

IC50 [1]: > 10000 nM
IC50 [2]: > 10000 nM
IC50 [3]: < 31.6 nM
IC50 [4]: < 31.6 nM
IC50 [5]: < 31.6 nM
IC50 [6]: < 31.6 nM
SMILES: C=CC(=O)N1CCN(c2nc(=O)n(-c3c(C)ccnc3C(C)C)c3nc(-c4c(O)cccc4F)c(F)cc23)C(C)C1 (stereo unspecified) + CNC(=O)c1ccc(Nc2nc(OC3CCCC3)c3c(-c4ccc5nc(C)oc5c4)c[nH]c3n2)c(OC)c1
viability, T/C [7]: 102%
viability, T/C [8]: 83.5%
viability, T/C [9]: 98.2%
viability, T/C [10]: 94.4%
viability, T/C [11]: 105%
viability, T/C [12]: 118%
viability, T/C [13]: 64.9%
viability, T/C [14]: 55.1%
viability, T/C [15]: 57.2%
viability, T/C [16]: 58.2%
viability, T/C [17]: 69.6%
viability, T/C [18]: 58.8%
viability, T/C [19]: 35.3%
viability, T/C [20]: 37.5%
viability, T/C [21]: 34.3%
viability, T/C [22]: 32.8%
viability, T/C [23]: 42.5%
viability, T/C [24]: 37.8%
viability, T/C [25]: 21.6%
viability, T/C [26]: 24.7%
viability, T/C [27]: 25.1%
viability, T/C [28]: 26.1%
viability, T/C [29]: 29.1%
viability, T/C [30]: 27.5%
viability, T/C [31]: 21.4%
viability, T/C [32]: 19.8%
viability, T/C [33]: 21.8%
viability, T/C [34]: 23.6%
viability, T/C [35]: 28.3%
viability, T/C [36]: 23.2%
viability, T/C [37]: 22.1%
viability, T/C [38]: 14.6%
viability, T/C [39]: 18.9%
viability, T/C [40]: 26%
viability, T/C [41]: 28.1%
viability, T/C [42]: 25%
